From patent US20240082212A1, “USE OF MDMA FOR TREATMENT OF STRESS-RELATED DISORDERS” (priority 2022, published 2024)
Entries after “also recorded” stand apart in the source; their conditions may differ.

How the values were obtained:
CD (Sprague Dawley) rats [1] = assay: Rat functional observation battery (FOB) neurobehavioral evaluation after cumulative SC dosing; assay type: in vivo
Description: The observations were assessed through a rat functional observation battery (FOB) and continuous physiological measurements on the day of cumulative dosing, which are provided in further detail below.
(§1) Methods. A total of 42 adult male CD® (Sprague Dawley) rats (Charles River Laboratories) were surgically implanted with DSI radiotelemetry devices by personnel at Charles River Laboratories Raleigh, NC, per their test site SOPs. Telemetry devices supported continuous recording of temperature, activity, blood pressure and heart rate. Telemeterized rats were shipped to the Charles River Laboratories testing facility (Mattawan, MI) and acclimated to the environment for at least 1 week prior to experimentation. Animals were pair-housed in solid bottom cages with nonaromatic bedding. On the dosing day, animals were singly housed and then returned to the paired cohort following the dosing/telemetry recording phase. Diet (Lab Diet® Certified Rodent Diet #5CR4) and tap water via an automatic water system were available ad libitum, except during designated procedures. Temperature and humidity were maintained according to the Testing Facility SOP. Animals were randomized into treatment groups using a standard, by weight, measured value randomization procedure. Body weight was determined for each rat prior to dosing.
(§2) As illustrated in the Table, a total of 36 rats were included in the study. The vehicle and 2 test article doses were administered in a volume of 1 mL/kg to each of 3 groups of n=12 telemeterized rats via subcutaneous injection four times on a given day, followed by neurobehavioral evaluations. This series was repeated 3 times on study. Each group received all 3 dose levels of the applicable test or control article in ascending order with a 1-week washout between dose levels.
(§3) Mortality/cage side clinical observations were conducted for all study animals at least twice daily beginning upon receipt through termination, except on days of receipt and termination where frequency was at least once daily. Detailed clinical observations were conducted for all study animals prior to each of the four cumulative doses in a series. Individual body weights were conducted for all study animals at transfer, prior to randomization, on the day of dosing on each of the 3 cycles of dosing. The body weights recorded at transfer and prior to randomization are not reported but are maintained in the study file. Veterinary care was available throughout the course of the study, and animals were examined by the veterinary staff as needed based on clinical signs or other changes. All animals were provided with HydroGel the night prior to their respective dosing days to potentially mitigate any animal welfare issues related to fluid loss/dehydration.
Neurobehavioral evaluations (blinded) were conducted for all study animals 1 hour following the last (4th) cumulative dose of the series. The neurobehavioral parameters evaluated included: activity measurements (arousal/alertness, posture/body carriage, stereotypy, rearing, and appearance), autonomic measurements (exophthalmus, lacrimation, erected fur, pupil response, salivation, defecation, and palpebral closure/ptosis), excitability measurements (vocalizations, startle response, ease of removal, handling reactivity, and convulsions), neuromuscular measurements (gait/mobility, grip strength/response, air righting reflex, tremor, and body tone), physiological measurements (respiration and body temperature), and sensorimotor measurements (touch response/tactile reflex and thermal response).

CD (Sprague Dawley) rats [2] = assay: Rat telemetry: heart rate, blood pressure, body temperature, activity after cumulative SC dosing; assay type: in vivo
Source text: as §1, §2, §3
Telemetry monitoring was conducted for all animals 2 hours prior to dosing and through to 7.5 hours following the last (4th) cumulative dose of each series, which included continuous data collection of body temperature, activity, heart rate, and blood pressure (systolic, diastolic, and mean arterial) using telemetry.
The total period of time over which the statistical analyses were conducted encompassed the entire dosing period for all animals (i.e., Dose 1 through 7.5 hour post-4th dose) in an effort to draw conclusions regarding the effects of the dosing procedure and cumulative changes by allowing comparisons between the cumulative dosing periods. The following statistical analyses were performed for each analysis segment.
All time-series data comparisons conducted via statistical analysis are relative to the control treatment and are based on the LSMean values. Additionally, the change values used for the statistical analysis were calculated using a baseline of the 2 hours of pre-dose data, prior to the first compound injection of the series. The raw change values were analyzed.

[3] = 1 h after last of 4 hourly SC injections, R-MDMA and racemic MDMA 10, 20 mg/kg/day, S-MDMA 5, 10 mg/kg/day
[4] = FOB, cumulative SC dosing, dose groups stated in the value
[5] = telemetry, cumulative SC dosing, dose groups stated in the value

## CNC(C)Cc1ccc2c(c1)OCO2 (single isomer, unassigned) [R-MDMA, R(−)-3,4-methylenedioxymethamphetamine]
CD (Sprague Dawley) rats [1]; [3]
  arousal/alertness and rearing: dose-dependent decreases in arousal/alertness and rearing
  ease of removal from the home cage and handling reactivity (excitability): Dose-dependent increased difficulty in removal from the home cage and increased handling reactivity
  forelimb grip strength: dose-dependent statistically significant decreases in forelimb grip strength
  salivation and erected fur (autonomic): Dose-dependent increased salivation and erected fur
  unkempt appearance: increased incidence of unkempt appearance in a dose-dependent manner
CD (Sprague Dawley) rats [1]; 1 h after last of 4 hourly SC injections, highest doses: S-MDMA 10, racemic-MDMA 20 mg/kg/day, R-MDMA 10, 20 mg/kg/day
  stereotypies (mouth movements/weaving, circling/retropulsion, sniffing): No stereotypical behaviors were reported
CD (Sprague Dawley) rats [1]; [4]
  Rank Order Activity Measurement Effects: S-MDMA (5 mg/kg/day) < R-MDMA (10 mg/kg/day) < Rac.-MDMA (10 mg/kg/day); also recorded: Rac.-MDMA (20 mg/kg/day) < S-MDMA (10 mg/kg/day) < R-MDMA (20 mg/kg/day); also recorded: R-MDMA (0 mg/kg/day) < R-MDMA (10 mg/kg/day) < R-MDMA (20 mg/kg/day); also recorded: Rac.-MDMA (20 mg/kg/day) < S-MDMA (10 mg/kg/day) < R-MDMA (10 mg/kg/day)
  Rank Order Autonomic Measurement Effects: R-MDMA (10 mg/kg/day) < S-MDMA (5 mg/kg/day) < Rac.-MDMA (10 mg/kg/day); also recorded: R-MDMA (20 mg/kg/day) < S-MDMA (10 mg/kg/day) < Rac-MDMA (20 mg/kg/day); also recorded: R-MDMA (0 mg/kg/day) < R-MDMA (10 mg/kg/day) < R-MDMA (20 mg/kg/day); also recorded: R-MDMA (10 mg/kg/day) < S-MDMA (10 mg/kg/day) = Rac-MDMA (20 mg/kg/day)
  Rank Order Excitability Measurement Effects: R-MDMA (10 mg/kg/day) < S-MDMA (5 mg/kg/day) < Rac.-MDMA (10 mg/kg/day); also recorded: R-MDMA (20 mg/kg/day) = S-MDMA (10 mg/kg/day) < Rac-MDMA (20 mg/kg/day); also recorded: R-MDMA (0 mg/kg/day) < R-MDMA (10 mg/kg/day) < R-MDMA (20 mg/kg/day); also recorded: R-MDMA (10 mg/kg/day) < S-MDMA (10 mg/kg/day) < Rac-MDMA (20 mg/kg/day)
  Rank Order Neuromuscular Measurement Effects: R-MDMA (10 mg/kg/day) < S-MDMA (5 mg/kg/day) < Rac.-MDMA (10 mg/kg/day); also recorded: R-MDMA (20 mg/kg/day) = S-MDMA (10 mg/kg/day) < Rac-MDMA (20 mg/kg/day); also recorded: R-MDMA (0 mg/kg/day) < R-MDMA (10 mg/kg/day) < R-MDMA (20 mg/kg/day); also recorded: R-MDMA (10 mg/kg/day) < S-MDMA (10 mg/kg/day) < Rac-MDMA (20 mg/kg/day)
  Rank Order Physiological Measurement Effects: R-MDMA (10 mg/kg/day) < S-MDMA (5 mg/kg/day) < Rac.-MDMA (10 mg/kg/day); also recorded: R-MDMA (20 mg/kg/day) < S-MDMA (10 mg/kg/day) = Rac-MDMA (20 mg/kg/day); also recorded: R-MDMA (0 mg/kg/day) = R-MDMA (10 mg/kg/day) = R-MDMA (20 mg/kg/day); also recorded: R-MDMA (10 mg/kg/day) < S-MDMA (10 mg/kg/day) = Rac-MDMA (20 mg/kg/day)
  Rank Order Sensorimotor Measurement Effects: S-MDMA (5 mg/kg/day) < Rac-MDMA (10 mg/kg/day) < R-MDMA (10 mg/kg/day); also recorded: S-MDMA (10 mg/kg/day) < Rac-MDMA (20 mg/kg/day) < R-MDMA (20 mg/kg/day); also recorded: R-MDMA (0 mg/kg/day) < R-MDMA (10 mg/kg/day) < R-MDMA (20 mg/kg/day)
CD (Sprague Dawley) rats [1]; at levels at least two-fold that of vehicle-treated groups, 1 h after last of 4 hourly SC injections
  thermal response times: Statistically significant increases in thermal response times
CD (Sprague Dawley) rats [2]; 4 hourly SC injections during telemetry monitoring
  stepwise increases in blood pressure or heart rate with repeated doses: no stepwise increases in blood pressure or heart rate were observed
CD (Sprague Dawley) rats [2]; 4 hourly SC injections, cumulative doses 5, 10, or 20 mg/kg/day
  hemodynamic parameters (systolic/diastolic/mean arterial blood pressures and heart rate): dose-dependent blood pressure-increasing effects
CD (Sprague Dawley) rats [2]; R-MDMA 10 mg/kg/day, 4 hourly SC injections
  body temperature response: hypothermic response
CD (Sprague Dawley) rats [2]; R-MDMA 20 mg/kg/day, 4 hourly SC injections
  body temperature response: hyperthermic response
CD (Sprague Dawley) rats [2]; all cumulative doses (5, 10, or 20 mg/kg/day)
  activity (implanted telemetry devices): Activity-increasing effects
CD (Sprague Dawley) rats [2]; by the end of telemetry monitoring (7.5 h after 4th dose)
  recovery of blood pressure effects: only test article examined which produced recoverable effects by the end of telemetry monitoring
CD (Sprague Dawley) rats [2]; maximum change, R-MDMA and racemic MDMA 10, 20 mg/kg/day, S-MDMA 5, 10 mg/kg/day, 4 hourly SC injections
  heart rate increase: up to +23%
CD (Sprague Dawley) rats [2]; overall mean magnitude of change, 4 hourly SC injections
  peak body temperatures: 38.6 °C
CD (Sprague Dawley) rats [2]; [5]
  Rank Order Blood Pressures (Systolic, Diastolic, and Mean Arterial) Effects: R-MDMA (10 mg/kg/day) < S-MDMA (5 mg/kg/day) < Rac.-MDMA (10 mg/kg/day); also recorded: R-MDMA (20 mg/kg/day) < S-MDMA (10 mg/kg/day) < Rac-MDMA (20 mg/kg/day); also recorded: R-MDMA (0 mg/kg/day) < R-MDMA (10 mg/kg/day) < R-MDMA (20 mg/kg/day); also recorded: R-MDMA (10 mg/kg/day) < S-MDMA (10 mg/kg/day) < Rac-MDMA (20 mg/kg/day)
  Rank Order Body Temperature Effects: R-MDMA (10 mg/kg/day) < S-MDMA (5 mg/kg/day) < Rac.-MDMA (10 mg/kg/day); also recorded: R-MDMA (20 mg/kg/day) < S-MDMA (10 mg/kg/day) < Rac-MDMA (20 mg/kg/day); also recorded: R-MDMA (0 mg/kg/day) < R-MDMA (10 mg/kg/day) < R-MDMA (20 mg/kg/day); also recorded: R-MDMA (10 mg/kg/day) < S-MDMA (10 mg/kg/day) < Rac-MDMA (20 mg/kg/day)
  Rank Order General Activity Effects: R-MDMA (10 mg/kg/day) < S-MDMA (5 mg/kg/day) < Rac.-MDMA (10 mg/kg/day); also recorded: R-MDMA (20 mg/kg/day) < S-MDMA (10 mg/kg/day) < Rac-MDMA (20 mg/kg/day); also recorded: R-MDMA (0 mg/kg/day) < R-MDMA (10 mg/kg/day) < R-MDMA (20 mg/kg/day); also recorded: R-MDMA (10 mg/kg/day) < S-MDMA (10 mg/kg/day) < Rac-MDMA (20 mg/kg/day)
  Rank Order Heart Rate Measurement Effects: R-MDMA (10 mg/kg/day) < S-MDMA (5 mg/kg/day) < Rac.-MDMA (10 mg/kg/day); also recorded: R-MDMA (20 mg/kg/day) < S-MDMA (10 mg/kg/day) < Rac-MDMA (20 mg/kg/day); also recorded: R-MDMA (0 mg/kg/day) < R-MDMA (10 mg/kg/day) < R-MDMA (20 mg/kg/day); also recorded: R-MDMA (10 mg/kg/day) < S-MDMA (10 mg/kg/day) < Rac-MDMA (20 mg/kg/day)
